In US20070141568A1, “Method for determining the presence of one or more ligands in a sample” (BioDetection Systems B.V., priority 2002, published 2007):
Read-outs that look alike come from different tables or passages of the source.

Experiments:
[1] = target: T1, progesterone receptor (PR) (Homo sapiens, UniProt P06401); test: U2-OS PR cell line (pSG5-hPR, 3×HRE-TATA-Luc reporter); format: cell-based
T1 construct: expressed in transfected cells; host or cells: human U2-OS cells, stably transfected with pSG5-hPR
T1 sequence (P06401 1-933): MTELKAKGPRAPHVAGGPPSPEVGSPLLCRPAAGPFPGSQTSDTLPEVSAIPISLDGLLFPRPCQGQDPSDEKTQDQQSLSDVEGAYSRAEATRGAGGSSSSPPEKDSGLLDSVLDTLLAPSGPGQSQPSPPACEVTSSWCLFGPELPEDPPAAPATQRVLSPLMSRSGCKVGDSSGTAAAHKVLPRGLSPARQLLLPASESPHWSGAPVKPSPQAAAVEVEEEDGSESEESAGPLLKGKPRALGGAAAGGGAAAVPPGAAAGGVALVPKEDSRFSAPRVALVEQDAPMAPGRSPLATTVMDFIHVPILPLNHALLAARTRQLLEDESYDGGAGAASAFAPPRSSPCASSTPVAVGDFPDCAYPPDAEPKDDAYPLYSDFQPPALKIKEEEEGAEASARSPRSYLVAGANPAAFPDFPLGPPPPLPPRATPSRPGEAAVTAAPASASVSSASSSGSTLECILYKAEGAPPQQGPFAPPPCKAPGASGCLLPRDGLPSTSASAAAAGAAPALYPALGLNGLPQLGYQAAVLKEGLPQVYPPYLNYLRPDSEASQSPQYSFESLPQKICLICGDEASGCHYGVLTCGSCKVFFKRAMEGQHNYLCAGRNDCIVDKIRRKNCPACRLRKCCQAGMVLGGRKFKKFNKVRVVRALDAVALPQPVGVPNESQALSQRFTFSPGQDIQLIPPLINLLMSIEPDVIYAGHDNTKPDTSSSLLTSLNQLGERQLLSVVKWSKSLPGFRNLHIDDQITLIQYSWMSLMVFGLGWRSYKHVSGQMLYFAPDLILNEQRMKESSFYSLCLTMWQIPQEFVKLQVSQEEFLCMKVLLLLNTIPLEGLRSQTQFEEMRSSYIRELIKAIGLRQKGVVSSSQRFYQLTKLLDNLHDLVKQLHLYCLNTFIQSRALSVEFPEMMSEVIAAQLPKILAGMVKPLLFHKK
Source text: Reporter constructs were made using specific synthetic multimerized hormone responsive elements which were cloned upstream of the synthetic TATA box in the pGL3-TATA-Luc vector. Stable transfected cell lines were made, when necessary co-transfected with a specific receptor-containing expression plasmid pSG5.
The reporter construct comprises 3 tandem repeats of the hormone responsive element (HRE) oligonucleotide:
upstream of the minimal adenovirus E1B TATA promotor sequence ([…]) inserted in the multiple cloning site of the luciferase reporter construct pGL3 (as described in Legler et al., supra).
In order to determine the responsiveness of the U2-OS based steroid reporter cell lines, cells were plated in 96-wells plates and treated for 24 hours with hormone in the culture medium containing 5% charcoal-stripped serum.
The PR cell line was generated by stably transfecting the human U2-OS cell line with pSG5-hPR and the 3×HRE-TATA-Luc reporter constructs.

ER-alpha = target: T2, ER-alpha (Homo sapiens, UniProt P03372); test: U2-OS ER-alpha luciferase reporter cell line; format: cell-based
T2 construct: expressed in transfected cells
T2 sequence (P03372 1-595): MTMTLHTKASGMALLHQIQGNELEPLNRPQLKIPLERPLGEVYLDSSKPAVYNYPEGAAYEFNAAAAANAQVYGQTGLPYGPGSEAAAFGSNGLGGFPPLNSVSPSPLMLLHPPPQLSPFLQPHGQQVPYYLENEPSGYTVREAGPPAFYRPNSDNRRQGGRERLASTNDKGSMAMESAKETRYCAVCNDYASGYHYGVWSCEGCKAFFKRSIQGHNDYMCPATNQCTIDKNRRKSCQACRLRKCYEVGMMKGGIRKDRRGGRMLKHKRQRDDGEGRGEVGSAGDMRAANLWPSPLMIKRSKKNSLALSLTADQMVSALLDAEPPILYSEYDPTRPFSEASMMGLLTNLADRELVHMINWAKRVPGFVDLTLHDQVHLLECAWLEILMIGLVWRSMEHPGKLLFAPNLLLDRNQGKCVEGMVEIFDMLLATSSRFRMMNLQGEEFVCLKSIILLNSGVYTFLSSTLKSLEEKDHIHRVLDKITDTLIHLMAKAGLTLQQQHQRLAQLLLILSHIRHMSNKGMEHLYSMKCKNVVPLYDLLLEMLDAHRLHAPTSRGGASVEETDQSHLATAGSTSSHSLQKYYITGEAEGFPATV

Structure (SMILES)	EC50 [1] [µM]	EC50 (ER-alpha) [µM]	also measured
C[C@]12CC[C@H](O)CC1=CC[C@@H]1[C@@H]2CC[C@]2(C)C(=O)CC[C@@H]12 [DHEA]			potency (logEC50) PR ([1]; logEC50, U2-OS reporter cell line, 24 hours with hormone, 5% charcoal-stripped serum): >−5.0
C[C@@H]1C[C@H]2[C@@H]3CCC4=CC(=O)C=C[C@]4(C)[C@@]3(F)[C@@H](O)C[C@]2(C)[C@@]1(O)C(=O)CO [Dexamethasone]			EC50 ([1]; logEC50, U2-OS reporter cell line, 24 hours with hormone, 5% charcoal-stripped serum, read-out: potency (logEC50) PR (converted)): > 10 µM
C[C@]12CC[C@H]3[C@@H](CCC4=CC(=O)CC[C@@H]43)[C@@H]1CC[C@@H]2O [Nandrolone]	0.00501	0.0398	
C[C@]1(O)CC[C@H]2[C@@H]3CCC4=CC(=O)CCC4=C3C=C[C@@]21C [R1881]		> 10	
C[C@]12CCC(=O)C=C1CC[C@@H]1[C@@H]2CC[C@]2(C)C(=O)CC[C@@H]12 [androstenedione]		> 10	
C[C@]12CCC(=O)C[C@@H]1CC[C@@H]1[C@@H]2CC[C@]2(C)[C@@H](O)CC[C@@H]12 [dihydro-testosterone, 5α-dihydro-testosterone]	3.98		
C[C@]12CC[C@H]3[C@@H](CCC4=CC(=O)CC[C@@]43C)[C@@H]1CC[C@@H]2O [testosterone]	7.94		
